Measured values published in patent US20250351832A1, “PHYTOCHEMICALS AS BIOPESTICIDES AND BIOSTIMULANTS” (KAY BEE BIO ORGANICS PVT. LTD., priority 2024, published 2025).
Like-named read-outs stand apart in the source and are kept apart here.

Assays:
Mealy Bug [1] = settings: mealy bug on cotton plants, green house, dose 1 ml/gm/lit. spray; for % Mortality at 48 Hrs. / Total No. of dead insect at 48 Hrs.: 48 hrs after application; for % Corrected Mortality at 48 Hrs.: corrected for water control
Alternaria alternata [2] = test: In vitro poisoned food technique against fungus (Ex. 20); assay type: cell-based; settings: poisoned food technique, PDA medium, dose 1 ml/gm/lit., after seven days
Helicoverpa armigera [3] = settings: Helicoverpa armigera on okra fruits, dose 1 ml/gm/lit., 72 Hrs.; for Total No. of dead insect at 72 Hrs.: 10 insects/treatment, 4 replications; for % Corrected Mortality at 72 Hrs.: corrected for water control
Aphid [4] = settings: Dose 1 ml/gm/lit.; for Total No. of dead insect at 48 Hrs.: 10 insects/treatment, 4 replications, cotton leaves
tomato seedlings = test: Response of tomato plants, greenhouse growth (Ex. 30); assay type: in vivo; settings: tomato seedlings, dose 1 ml/gm/lit; for Plant Height 5th Day / Stem Girth 5th Day / CCI 5th Day: 5th day after application; for Plant Height 10th Day / Stem Girth 10th Day / CCI 10th Day: 10th day after application; for Plant Height % Increase over pre on 10th Day / Stem Girth % Increase over pre on 10th Day / CCI % Increase over pre on 10th Day / Root Length (cm) 10th Day / Root Length % Increase over control: 10th day; for Root Length % Increase over control: vs water control
Spodoptera litura [5] = settings: Spodoptera litura on castor leaves, dose 1 ml/gm/lit.; for Total No. of dead insect at 72 Hrs.: 10 insects/treatment
Helicoverpa armigera [6] = settings: Helicoverpa armigera 3rd instar on chickpea plants, dose 1 ml/gm/lit. spray; for % Mortality at 72 Hrs.: 72 hrs after application; for % Corrected Mortality at 72 Hrs.: corrected for water control
Alternaria alternata [7] = test: Alternaria leaf spot/blight on inoculated tomato plants (Ex. 28); assay type: in vivo; settings: tomato plants, Alternaria alternata; after 7 days; dose 1 ml/gm/lit
[8] = cited from earlier work
Mite [9] = settings: mite on okra plants, green house, dose 1 ml/gm/lit. spray; for % Mortality at 48 Hrs. / Total No. of dead insect at 48 Hrs.: 48 hrs after application; for % Corrected Mortality at 48 Hrs.: corrected for water control
Thrips [10] = settings: Thrips on cotton leaves, dose 1 ml/gm/lit.; for Total No. of dead insect at 48 Hrs.: 10 insects/treatment
Mite [11] = settings: Dose 1 ml/gm/lit.; for Total No. of dead insect at 48 Hrs.: 10 insects/treatment, 4 replications, okra leaves
Aphid [12] = settings: Aphids on cotton plants, green house, dose 1 ml/gm/lit.; for Total No. of dead insect at 48 Hrs.: 10 insects/plant, 10 plants/treatment
Spodoptera litura [13] = settings: Spodoptera litura 3rd instar on cabbage plants, dose 1 ml/gm/lit. spray
Thrips [14] = settings: thrips on cotton plants, greenhouse, dose 1 ml/gm/lit. spray; for % Mortality at 48 Hrs. / Total No. of dead insect at 48 Hrs.: 48 hrs after application; for % Corrected Mortality at 48 Hrs.: corrected for water control
chili seedlings = test: Response of chili plants, greenhouse growth (Ex. 31); assay type: in vivo; settings: chili seedlings, dose 1 ml/gm/lit; for CCI 5th Day / Plant Height (cm) 5th Day: 5th day after application; for CCI 10th Day / Plant Height (cm) 10th Day: 10th day after application; for CCI % Increase over pre on 10th Day / Plant Height % Increase over pre on 10th Day / Root Lenght (cm) 10th Day / Stem Girth % Increase over pre on 10th Day / Root Lenght % Increase over control: 10th day; for Root Lenght % Increase over control: vs water control
Mealy Bug [15] = settings: Mealy Bug on cotton leaves, dose 1 ml/gm/lit., 48 Hrs.; for Total No. of dead insect at 48 Hrs.: 10 insects/treatment, 4 replications; for % Corrected Mortality at 48 Hrs.: corrected for water control
Aphid [16] = test: whole plant or invertebrate; settings: 48 h
Spodoptera litura [17] = test: whole plant or invertebrate; settings: 72 h
Thrips [18] = test: whole plant or invertebrate; settings: in Gossypium hirsutum, 48 h
[19] = 72 hrs, corrected for water control
[20] = Table 13, descriptive, no test described
[21] = 48 hrs, corrected for water control
[22] = read-out: % Corrected Mortality at 48 Hrs.
[23] = read-out: % Mortality at 48 Hrs.

Berberine
% Mortality at 48 Hrs. (Mealy Bug [1]): 70.00%
Total No. of dead insect at 48 Hrs. (Mealy Bug [1]): 70.00
% Corrected Mortality at 48 Hrs. (Mealy Bug [1]): 66.67%
Mean colony Diameter (mm) (Alternaria alternata [2]): 45.50 mm
% Inhibition of growth (Alternaria alternata [2]; vs untreated control): 48.30%
Total No. of dead insect at 72 Hrs. (Helicoverpa armigera [3]): 6.50
% Mortality at 72 Hrs. (Helicoverpa armigera [3]): 65.00%
% Corrected Mortality at 72 Hrs. (Helicoverpa armigera [3]): 65.00%
Total No. of dead insect at 48 Hrs. (Aphid [4]): 5.25
% Corrected Mortality at 48 Hrs. (Aphid [4]): 45.71%
% Mortality at 48 Hrs. (Aphid [4]): 52.50%
Plant Height 5th Day (tomato seedlings): 6.78 cm
Stem Girth 5th Day (tomato seedlings): 2.01 mm
Plant Height 10th Day (tomato seedlings): 7.34 cm
Stem Girth 10th Day (tomato seedlings): 2.25 mm
Plant Height % Increase over pre on 10th Day (tomato seedlings): 29.91%
Stem Girth % Increase over pre on 10th Day (tomato seedlings): 54.11%
Plant Height Pre (tomato seedlings; before application): 5.65 cm
Stem Girth Pre (tomato seedlings; before application): 1.46 mm
CCI 5th Day (tomato seedlings): 14.53
CCI % Increase over pre on 10th Day (tomato seedlings): 24.86%
Root Length (cm) 10th Day (tomato seedlings): 4.13 cm
CCI 10th Day (tomato seedlings): 15.67
Root Length % Increase over control (tomato seedlings): 24.12%
CCI Pre (tomato seedlings; pre-application baseline): 12.55
Total No. of dead insect at 72 Hrs. (Spodoptera litura [5]; 72 hrs after application): 7.00
% Mortality at 72 Hrs. (Spodoptera litura [5]; 72 hrs after application): 70.00%
% Corrected Mortality at 72 Hrs. (Spodoptera litura [5]; [19]): 68.42%
% Mortality at 72 Hrs. (Helicoverpa armigera [6]): 62.50%
% Corrected Mortality at 72 Hrs. (Helicoverpa armigera [6]): 62.50%
% Disease reduction over Control (Alternaria alternata [7]): 52.89%
Antifungal Activity - Mode of action [8, 20]: Inhibit multipath mechanisms,
Antioxidant Activity - Mode of action [8, 20]: Reducing Oxidative Stress
Bactericidal Activity - Mode of action [8, 20]: Resulting in DNA damage,
Insecticidal Activities - Mode of action [8, 20]: Disturbed moulting, larval-
Nematicidal Activity - Mode of action [8, 20]: Effective against root knot
Phytotonic Effect ([8]; Table 13, effect on plants, descriptive): Boost
% Mortality at 48 Hrs. (Mite [9]): 45.00%
Total No. of dead insect at 48 Hrs. (Mite [9]): 45.00
% Corrected Mortality at 48 Hrs. (Mite [9]): 42.11%
Total No. of dead insect at 48 Hrs. (Thrips [10]; 48 hrs after application): 6.50
% Mortality at 48 Hrs. (Thrips [10]; 48 hrs after application): 65.00%
% Corrected Mortality at 48 Hrs. (Thrips [10]; [21]): 60.00%
Total No. of dead insect at 48 Hrs. (Mite [11]): 4.75
% Corrected Mortality at 48 Hrs. (Mite [11]): 43.24%
% Mortality at 48 Hrs. (Mite [11]): 47.50%
Total No. of dead insect at 48 Hrs. (Aphid [12]; 48 hrs): 55.00
% Mortality at 48 Hrs. (Aphid [12]; 48 hrs after application): 55.00%
% Corrected Mortality at 48 Hrs. (Aphid [12]; [21]): 47.06%
% Mortality at 72 Hrs. (Spodoptera litura [13]; 72 hrs after application): 67.50%
% Corrected Mortality at 72 Hrs. (Spodoptera litura [13]; [19]): 65.79%
% Mortality at 48 Hrs. (Thrips [14]): 67.50%
Total No. of dead insect at 48 Hrs. (Thrips [14]): 67.50
% Corrected Mortality at 48 Hrs. (Thrips [14]): 63.89%
CCI 5th Day (chili seedlings): 13.04
Plant Height (cm) 5th Day (chili seedlings): 6.15 cm
CCI % Increase over pre on 10th Day (chili seedlings): 36.98%
Plant Height % Increase over pre on 10th Day (chili seedlings): 50.11%
Root Lenght (cm) 10th Day (chili seedlings): 3.11 cm
Stem Girth % Increase over pre on 10th Day (chili seedlings): 40.15%
CCI 10th Day (chili seedlings): 14.04
Plant Height (cm) 10th Day (chili seedlings): 6.89 cm
Root Lenght % Increase over control (chili seedlings): 13.75%
CCI Pre (chili seedlings; pre-application baseline): 10.25
Plant Height (cm) Pre (chili seedlings; pre-application baseline): 4.59 cm
Total No. of dead insect at 48 Hrs. (Mealy Bug [15]): 7.50
% Mortality at 48 Hrs. (Mealy Bug [15]): 75.00%
% Corrected Mortality at 48 Hrs. (Mealy Bug [15]): 73.68%

CC1CCC(C(C)C)C(O)C1 (centres unmarked) [Menthol]
% Mortality at 48 Hrs. (Mealy Bug [1]): 67.50%
Total No. of dead insect at 48 Hrs. (Mealy Bug [1]): 67.50
% Corrected Mortality at 48 Hrs. (Mealy Bug [1]): 63.89%
Mean colony Diameter (mm) (Alternaria alternata [2]): 52.00 mm
inhibition of growth at 1 mL or g/L (Alternaria alternata [2]; vs untreated control, read-out: % Inhibition of growth): 40.9%
Total No. of dead insect at 72 Hrs. (Helicoverpa armigera [3]): 6.00
% Mortality at 72 Hrs. (Helicoverpa armigera [3]): 60.00%
% Corrected Mortality at 72 Hrs. (Helicoverpa armigera [3]): 60.00%
Total No. of dead insect at 48 Hrs. (Aphid [4]): 7.00
% Corrected Mortality at 48 Hrs. (Aphid [4]): 65.71%
% Mortality at 48 Hrs. (Aphid [4]): 70.00%
mortality at 1 mL or g/L (Aphid [16]; [22]): 70.6%
mortality at 1 mL or g/L (Aphid [16]; [23]): 75%
mortality at 1 mL or g/L (Spodoptera litura [17]; read-out: % Corrected Mortality at 72 Hrs.): 23.7%
mortality at 1 mL or g/L (Spodoptera litura [17]; read-out: % Mortality at 72 Hrs.): 27.5%
Plant Height 5th Day (tomato seedlings): 6.78 cm
Stem Girth 5th Day (tomato seedlings): 1.48 mm
Plant Height 10th Day (tomato seedlings): 7.18 cm
Stem Girth 10th Day (tomato seedlings): 2.19 mm
Plant Height % Increase over pre on 10th Day (tomato seedlings): 27.30%
Stem Girth % Increase over pre on 10th Day (tomato seedlings): 54.01%
CCI 5th Day (tomato seedlings): 13.48
CCI % Increase over pre on 10th Day (tomato seedlings): 27.44%
Root Length (cm) 10th Day (tomato seedlings): 3.93 cm
CCI 10th Day (tomato seedlings): 14.35
Root Length % Increase over control (tomato seedlings): 18.18%
Total No. of dead insect at 72 Hrs. (Spodoptera litura [5]; 72 hrs after application): 2.75
% Mortality at 72 Hrs. (Helicoverpa armigera [6]): 55.00%
% Corrected Mortality at 72 Hrs. (Helicoverpa armigera [6]): 55.00%
% Disease reduction over Control (Alternaria alternata [7]): 56.20%
Acaricidal Activity - Mode of action [8, 20]: Causes mortality & reduction
Antifungal Activity - Mode of action [8, 20]: Inhibits fungal growth
Antioxidant Activity - Mode of action [8, 20]: Possesses antioxidant
Bactericidal Activity - Mode of action [8, 20]: Menthol showed
Insecticidal Activities - Mode of action [8, 20]: Lower larval weight, reduced
% Mortality at 48 Hrs. (Mite [9]): 42.50%
Total No. of dead insect at 48 Hrs. (Mite [9]): 42.50
% Corrected Mortality at 48 Hrs. (Mite [9]): 39.47%
Total No. of dead insect at 48 Hrs. (Thrips [10]; 48 hrs after application): 7.50
mortality at 1 mL or g/L (Thrips [18]; [22]): 71.4%
mortality at 1 mL or g/L (Thrips [18]; [23]): 75%
Total No. of dead insect at 48 Hrs. (Mite [11]): 4.50
% Corrected Mortality at 48 Hrs. (Mite [11]): 40.54%
% Mortality at 48 Hrs. (Mite [11]): 45.00%
Total No. of dead insect at 48 Hrs. (Aphid [12]; 48 hrs): 75.00
% Mortality at 48 Hrs. (Thrips [14]): 72.50%
Total No. of dead insect at 48 Hrs. (Thrips [14]): 72.50
% Corrected Mortality at 48 Hrs. (Thrips [14]): 69.44%
CCI 5th Day (chili seedlings): 10.24
Plant Height (cm) 5th Day (chili seedlings): 6.48 cm
CCI % Increase over pre on 10th Day (chili seedlings): 44.78%
Plant Height % Increase over pre on 10th Day (chili seedlings): 45.21%
Root Lenght (cm) 10th Day (chili seedlings): 3.02 cm
Stem Girth % Increase over pre on 10th Day (chili seedlings): 42.37%
CCI 10th Day (chili seedlings): 13.87
Plant Height (cm) 10th Day (chili seedlings): 6.52 cm
Root Lenght % Increase over control (chili seedlings): 10.37%
Total No. of dead insect at 48 Hrs. (Mealy Bug [15]): 6.50
% Mortality at 48 Hrs. (Mealy Bug [15]): 65.00%
% Corrected Mortality at 48 Hrs. (Mealy Bug [15]): 63.16%
